Legend:
Type in all cases: functional
TK-10 = assay: Cytotoxicity against human TK10 cells assessed as cellular growth at 0.01 uM after 48 hrs by SRB assay relative to control
OVCAR-4 = assay: Cytotoxicity against human OVCAR4 cells assessed as cellular growth at 0.01 uM after 48 hrs by SRB assay relative to control
SNB-19 [1] = assay: Cytotoxicity against human SNB19 cells assessed as cellular growth at 100 uM after 48 hrs by SRB assay relative to control
SNB-75 [2] = assay: Cytotoxicity against human SNB75 cells assessed as cellular growth at 1 uM after 48 hrs by SRB assay relative to control
HOP-62 [3] = assay: Cytotoxicity against human HOP62 cells assessed as cellular growth at 0.01 uM after 48 hrs by SRB assay relative to control
OVCAR-5 [4] = assay: Cytotoxicity against human OVCAR5 cells after 48 hrs by SRB assay; conditions: OVCAR-5, 48 h
SF-295 [5] = assay: Cytotoxicity against human SF295 cells assessed as cellular growth at 1 uM after 48 hrs by SRB assay relative to control
OVCAR-5 [6] = assay: Cytotoxicity against human OVCAR5 cells assessed as cellular growth at 0.1 uM after 48 hrs by SRB assay relative to control
A498 [7] = assay: Cytotoxicity against human A498 cells assessed as cellular growth at 0.1 uM after 48 hrs by SRB assay relative to control
U-251 = assay: Cytotoxicity against human U251 cells assessed as cellular growth at 100 uM after 48 hrs by SRB assay relative to control
SF-295 [8] = assay: Cytotoxicity against human SF295 cells assessed as cellular growth at 100 uM after 48 hrs by SRB assay relative to control
ACHN = assay: Cytotoxicity against human ACHN cells assessed as cellular growth at 0.1 uM after 48 hrs by SRB assay relative to control
Malme-3M [9] = assay: Cytotoxicity against human MALME-3M cells assessed as cellular growth at 0.1 uM after 48 hrs by SRB assay relative to control
SW-620 [10] = assay: Cytotoxicity against human SW620 cells assessed as cellular growth at 0.01 uM after 48 hrs by SRB assay relative to control
OVCAR-5 [11] = assay: Cytotoxicity against human OVCAR5 cells assessed as cellular growth at 100 uM after 48 hrs by SRB assay relative to control
KM12 = assay: Cytotoxicity against human KM12 cells assessed as cellular growth at 0.1 uM after 48 hrs by SRB assay relative to control
786-0 [12] = assay: Cytotoxicity against human 786-0 cells assessed as cellular growth at 0.1 uM after 48 hrs by SRB assay relative to control
NCI-H322M = assay: Cytotoxicity against human NCI-H322M cells assessed as cellular growth at 1 uM after 48 hrs by SRB assay relative to control
[13] = Cytotoxicity against human NCI-ADR-RES cells assessed as cellular growth at 0.1 uM after 48 hrs by SRB assay relative to control
COLO 205 = assay: Cytotoxicity against human COLO205 cells after 48 hrs by SRB assay; conditions: COLO 205, 48 h
SW-620 [14] = assay: Cytotoxicity against human SW620 cells assessed as cellular growth at 0.1 uM after 48 hrs by SRB assay relative to control
SNB-19 [15] = assay: Cytotoxicity against human SNB19 cells assessed as cellular growth at 0.1 uM after 48 hrs by SRB assay relative to control
786-0 [16] = assay: Cytotoxicity against human 786-0 cells assessed as cellular growth at 0.01 uM after 48 hrs by SRB assay relative to control
OVCAR-3 = assay: Cytotoxicity against human OVCAR3 cells assessed as cellular growth at 100 uM after 48 hrs by SRB assay relative to control
A498 [17] = assay: Cytotoxicity against human A498 cells after 48 hrs by SRB assay; conditions: A498, 48 h
Malme-3M [18] = assay: Cytotoxicity against human MALME-3M cells assessed as cellular growth at 0.01 uM after 48 hrs by SRB assay relative to control
LOX IMVI = assay: Cytotoxicity against human LOXIMVI cells assessed as cellular growth at 1 uM after 48 hrs by SRB assay relative to control
HOP-62 [19] = assay: Cytotoxicity against human HOP62 cells assessed as cellular growth at 100 uM after 48 hrs by SRB assay relative to control
SN12C [20] = assay: Cytotoxicity against human SN12C cells assessed as cellular growth at 100 uM after 48 hrs by SRB assay relative to control
SF-539 = assay: Cytotoxicity against human SF539 cells assessed as cellular growth at 0.1 uM after 48 hrs by SRB assay relative to control
SK-MEL-28 = assay: Cytotoxicity against human SK-MEL-28 cells assessed as cellular growth at 0.01 uM after 48 hrs by SRB assay relative to control
MDA-MB-231 = assay: Cytotoxicity against human MDA-MB-231 cells assessed as cellular growth at 0.01 uM after 48 hrs by SRB assay relative to control
MCF7 = assay: Cytotoxicity against human MCF7 cells assessed as cellular growth at 100 uM after 48 hrs by SRB assay relative to control
M14 = assay: Cytotoxicity against human M14 cells assessed as cellular growth at 0.01 uM after 48 hrs by SRB assay relative to control
CCRF-CEM = assay: Cytotoxicity against human CCRF-CEM cells assessed as cellular growth at 100 uM after 48 hrs by SRB assay relative to control
HCT-116 = assay: Cytotoxicity against human HCT116 cells assessed as cellular growth at 0.01 uM after 48 hrs by SRB assay relative to control
SNB-75 [21] = assay: Cytotoxicity against human SNB75 cells after 48 hrs by SRB assay; conditions: SNB-75, 48 h
SN12C [22] = assay: Cytotoxicity against human SN12C cells assessed as cellular growth at 0.1 uM after 48 hrs by SRB assay relative to control
NCI-H226 = assay: Cytotoxicity against human NCI-H226 cells assessed as cellular growth at 100 uM after 48 hrs by SRB assay relative to control
[23] = read-out: LC50 (the source's name)
[24] = read-out: pLC50 (the source's name) (converted)

O=C(CCCn1c2c(sc3ccccc32)c(=O)n2nnc(-c3ccccc3)c12)NCCc1c[nH]cn1
Activity (TK-10): 96%
Activity (OVCAR-4): 110%
Activity (SNB-19 [1]): -84%
Activity (SNB-75 [2]): 107%
Activity (HOP-62 [3]): 112%
GI50 (OVCAR-5 [4]; read-out: GI50): 0.0565 µM
CC50 (OVCAR-5 [4]; [23]): 4.06 µM
TGI (OVCAR-5 [4]; read-out: TGI): 1.36 µM
GI50 (OVCAR-5 [4]; read-out: pGI50 (converted)): 0.0562 µM
CC50 (OVCAR-5 [4]; [24]): 4.07 µM
TGI (OVCAR-5 [4]; read-out: pTGI (converted)): 1.35 µM
Activity (SF-295 [5]): 39%
Activity (OVCAR-5 [6]): 36%
Activity (A498 [7]): 72%
Activity (U-251): -100%
Activity (SF-295 [8]): -65%
Activity (ACHN): 100%
Activity (Malme-3M [9]): 101%
Activity (SW-620 [10]): 63%
Activity (OVCAR-5 [11]): -80%
Activity (KM12): 62%
Activity (786-0 [12]): 62%
Activity (NCI-H322M): 90%
Activity [13]: 97%
GI50 (COLO 205; read-out: GI50): 0.332 µM
CC50 (COLO 205; [23]): 5.9 µM
TGI (COLO 205; read-out: TGI): 2.23 µM
GI50 (COLO 205; read-out: pGI50 (converted)): 0.331 µM
CC50 (COLO 205; [24]): 5.89 µM
TGI (COLO 205; read-out: pTGI (converted)): 2.24 µM
Activity (SW-620 [14]): 29%
Activity (SNB-19 [15]): 65%
Activity (786-0 [16]): 98%
Activity (OVCAR-3): -100%
GI50 (A498 [17]; read-out: GI50): 1.09 µM
CC50 (A498 [17]; [23]): 5.61 µM
TGI (A498 [17]; read-out: TGI): 2.47 µM
GI50 (A498 [17]; read-out: pGI50 (converted)): 1.1 µM
CC50 (A498 [17]; [24]): 5.62 µM
TGI (A498 [17]; read-out: pTGI (converted)): 2.45 µM
Activity (Malme-3M [18]): 100%
Activity (LOX IMVI): 82%
Activity (HOP-62 [19]): -66%
Activity (SN12C [20]): -100%
Activity (SF-539): 1%
Activity (SK-MEL-28): 117%
Activity (MDA-MB-231): 115%
Activity (MCF7): -73%
Activity (M14): 108%
Activity (CCRF-CEM): -100%
Activity (HCT-116): 16%
GI50 (SNB-75 [21]; read-out: GI50): 1.95 µM
CC50 (SNB-75 [21]; [23]): 6.32 µM
TGI (SNB-75 [21]; read-out: TGI): 3.51 µM
GI50 (SNB-75 [21]; read-out: pGI50 (converted)): 1.95 µM
CC50 (SNB-75 [21]; [24]): 6.31 µM
TGI (SNB-75 [21]; read-out: pTGI (converted)): 3.55 µM
Activity (SN12C [22]): 40%
Activity (NCI-H226): -72%

CN1CCN(CCCn2c3c(sc4ncccc43)c(=O)n3nnc(-c4ccccc4)c23)CC1
Activity (TK-10): 105%
Activity (OVCAR-4): 100%
Activity (SNB-19 [1]): -42%
Activity (SNB-75 [2]): 66%
Activity (HOP-62 [3]): 97%
GI50 (OVCAR-5 [4]; read-out: GI50): 2.69 µM
CC50 (OVCAR-5 [4]; [23]): > 100 µM
TGI (OVCAR-5 [4]; read-out: TGI): 7.35 µM
GI50 (OVCAR-5 [4]; read-out: pGI50 (converted)): 2.69 µM
CC50 (OVCAR-5 [4]; [24]): > 100 µM
TGI (OVCAR-5 [4]; read-out: pTGI (converted)): 7.41 µM
Activity (SF-295 [5]): 103%
Activity (OVCAR-5 [6]): 102%
Activity (A498 [7]): 81%
Activity (U-251): -46%
Activity (SF-295 [8]): -84%
Activity (ACHN): 91%
Activity (Malme-3M [9]): 81%
Activity (SW-620 [10]): 96%
Activity (OVCAR-5 [11]): -44%
Activity (KM12): 94%
Activity (786-0 [12]): 100%
Activity (NCI-H322M): 90%
Activity [13]: 91%
GI50 (COLO 205; read-out: GI50): 1.63 µM
CC50 (COLO 205; [23]): 6.42 µM
TGI (COLO 205; read-out: TGI): 3.24 µM
GI50 (COLO 205; read-out: pGI50 (converted)): 1.62 µM
CC50 (COLO 205; [24]): 6.46 µM
TGI (COLO 205; read-out: pTGI (converted)): 3.24 µM
Activity (SW-620 [14]): 89%
Activity (SNB-19 [15]): 96%
Activity (786-0 [16]): 103%
Activity (OVCAR-3): -84%
GI50 (A498 [17]; read-out: GI50): 11.2 µM
CC50 (A498 [17]; [23]): 52.3 µM
TGI (A498 [17]; read-out: TGI): 24.2 µM
GI50 (A498 [17]; read-out: pGI50 (converted)): 11.2 µM
CC50 (A498 [17]; [24]): 52.5 µM
TGI (A498 [17]; read-out: pTGI (converted)): 24 µM
Activity (Malme-3M [18]): 83%
Activity (LOX IMVI): 86%
Activity (HOP-62 [19]): -81%
Activity (SN12C [20]): -47%
Activity (SF-539): 89%
Activity (SK-MEL-28): 100%
Activity (MDA-MB-231): 100%
Activity (MCF7): -79%
Activity (M14): 97%
Activity (CCRF-CEM): -49%
Activity (HCT-116): 97%
GI50 (SNB-75 [21]; read-out: GI50): 7.71 µM
CC50 (SNB-75 [21]; [23]): 48.8 µM
TGI (SNB-75 [21]; read-out: TGI): 21.7 µM
GI50 (SNB-75 [21]; read-out: pGI50 (converted)): 7.76 µM
CC50 (SNB-75 [21]; [24]): 49 µM
TGI (SNB-75 [21]; read-out: pTGI (converted)): 21.9 µM
Activity (SN12C [22]): 88%
Activity (NCI-H226): -79%

— ChEMBL document CHEMBL2401728, “An unexpected Dimroth rearrangement leading to annelated thieno[3,2-d][1,2,3]triazolo[1,5-a]pyrimidines with potent antitumor activity” (Eur J Med Chem, 2013)
